Data from ChEMBL document CHEMBL4376821, “Recent Developments in Therapeutic Peptides for the Glucagon-like Peptide 1 and 2 Receptors” (J Med Chem, 2020).
Non-standard residues stand in square brackets, D forms with d. Residues, ends and D or L forms follow the SMILES beside them. *: point of attachment. Palmitoyl = CCCCCCCCCCCCCCCC(=O)*; Nle = CCCC[C@H](N)C(=O)O

How the values were obtained:
[1] = Half life in human plasma; format: ADME, cell-free
[2] = target: Glucagon-like peptide 1 receptor (Homo sapiens, UniProt P43220); experiment: Agonist activity at human GLP-1 receptor expressed in CHO-K1 cells assessed as cAMP induction by FRET assay; format: functional, cell-based
[3] = target: T1, Glucagon-like peptide 2 receptor (Homo sapiens, UniProt O95838); experiment: Agonist activity at human GLP-2 receptor expressed in CHO-K1 cells assessed as cAMP induction by FRET assay; format: functional, cell-based
T1 sequence (O95838 whole entry): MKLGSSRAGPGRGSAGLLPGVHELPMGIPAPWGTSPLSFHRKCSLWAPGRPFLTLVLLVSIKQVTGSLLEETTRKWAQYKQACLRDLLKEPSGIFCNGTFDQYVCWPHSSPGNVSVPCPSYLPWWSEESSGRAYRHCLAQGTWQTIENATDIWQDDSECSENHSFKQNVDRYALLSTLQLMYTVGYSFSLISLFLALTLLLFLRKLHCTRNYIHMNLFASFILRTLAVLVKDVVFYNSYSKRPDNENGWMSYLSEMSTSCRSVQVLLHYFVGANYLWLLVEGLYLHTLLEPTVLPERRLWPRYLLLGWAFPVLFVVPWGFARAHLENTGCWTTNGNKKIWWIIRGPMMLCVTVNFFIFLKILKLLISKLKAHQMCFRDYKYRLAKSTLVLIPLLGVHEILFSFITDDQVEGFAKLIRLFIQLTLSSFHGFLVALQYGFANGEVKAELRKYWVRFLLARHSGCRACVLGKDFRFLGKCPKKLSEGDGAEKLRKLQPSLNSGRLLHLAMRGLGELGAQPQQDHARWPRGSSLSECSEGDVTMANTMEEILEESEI

[4] = Half life in C57BL/6J mouse at 800 nmol/kg, sc measured up to 24 hrs by LC-MS/MS analysis; format: ADME, organism-based; conditions: in vivo
[5] = Clearance in Sprague-Dawley rat at 0.2 mg/kg, iv; format: ADME, organism-based; conditions: in vivo
[6] = Terminal half life in cynomolgus monkey at 0.25 mg/kg, sc; format: ADME, organism-based, Macaca fascicularis; conditions: in vivo, read-out: beta t1/2
[7] = Half-life in Yucatan mini-pig at 0.15 mg, sc; format: ADME, Sus scrofa domesticus; conditions: in vivo
[8] = Half life in human at 15 mg, sc qd measured on day 8 by liquid chromatography/tandem mass spectrometry method; format: ADME, organism-based; conditions: in vivo
[9] = Half life in human; format: ADME
Homo sapiens = species: Homo sapiens; experiment: Induction of plasma citrulline level in human; format: functional
[10] = Half life in human plasma at 0.5 mg for 4 weeks followed by 0.5 mg for 4 weeks and subsequently 1 mg for weeks administered subcutaneously once weekly and measured up to 840 hrs post last dose by LC-MS/MS analysis; format: ADME; conditions: sc

Sequence of Glucagon-like peptide 1 receptor (P43220 whole entry): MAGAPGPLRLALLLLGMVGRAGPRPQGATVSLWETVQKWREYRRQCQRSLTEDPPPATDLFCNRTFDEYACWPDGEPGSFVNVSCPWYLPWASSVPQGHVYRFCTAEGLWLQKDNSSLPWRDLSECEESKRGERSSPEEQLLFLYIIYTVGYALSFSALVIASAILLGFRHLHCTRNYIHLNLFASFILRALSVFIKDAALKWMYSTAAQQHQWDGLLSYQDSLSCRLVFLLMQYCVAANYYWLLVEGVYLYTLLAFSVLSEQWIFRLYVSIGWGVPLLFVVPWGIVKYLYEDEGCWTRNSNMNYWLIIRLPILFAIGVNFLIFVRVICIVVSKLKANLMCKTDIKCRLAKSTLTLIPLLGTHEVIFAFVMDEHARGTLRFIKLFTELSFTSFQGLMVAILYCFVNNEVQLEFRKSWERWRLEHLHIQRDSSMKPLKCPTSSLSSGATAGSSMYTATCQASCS

CC[C@H](C)[C@H](NC(=O)[C@H](Cc1ccccc1)NC(=O)[C@H](CCC(=O)O)NC(=O)[C@H](CCCCN)NC(=O)[C@H](C)NC(=O)[C@H](C)NC(=O)[C@H](CCC(N)=O)NC(=O)CNC(=O)[C@H](CCC(=O)O)NC(=O)[C@H](CC(C)C)NC(=O)[C@H](Cc1ccc(O)cc1)NC(=O)[C@H](CO)NC(=O)[C@H](CO)NC(=O)[C@@H](NC(=O)[C@H](CC(=O)O)NC(=O)[C@H](CO)NC(=O)[C@@H](NC(=O)[C@H](Cc1ccccc1)NC(=O)[C@@H](NC(=O)CNC(=O)[C@H](CCC(=O)O)NC(=O)[C@H](C)NC(=O)[C@@H](N)Cc1cnc[nH]1)[C@@H](C)O)[C@@H](C)O)C(C)C)C(=O)N[C@@H](C)C(=O)N[C@@H](Cc1c[nH]c2ccccc12)C(=O)N[C@@H](CC(C)C)C(=O)N[C@H](C(=O)N[C@@H](CCCCN)C(=O)NCC(=O)N[C@@H](CCCNC(=N)N)C(=O)O)C(C)C
half-life [1]: < 2 min

CCCCCCCCCCCCCCCC(=O)NCCCC[C@H](NC(=O)[C@H](Cc1ccc(O)cc1)NC(=O)[C@@H](NC(=O)[C@H](CO)NC(=O)[C@H](CC(C)C)NC(=O)[C@H](CCC(=O)O)NC(=O)[C@H](CO)NC(=O)[C@@H](NC(=O)[C@H](Cc1ccccc1)NC(=O)[C@H](CO)NC(=O)CNC(=O)[C@H](CC(=O)O)NC(=O)CNC(=O)[C@@H](N)Cc1cnc[nH]1)[C@@H](C)O)[C@@H](C)O)C(=O)N[C@@H](CC(=O)O)C(=O)N[C@@H](C)C(=O)N[C@@H](CC(C)C)C(=O)N[C@@H](C)C(=O)N[C@@H](C)C(=O)N[C@@H](CCCNC(=N)N)C(=O)N[C@@H](CC(=O)O)C(=O)N[C@@H](Cc1ccccc1)C(=O)N[C@H](C(=O)N[C@@H](C)C(=O)N[C@@H](Cc1c[nH]c2ccccc12)C(=O)N[C@@H](CC(C)C)C(=O)N[C@H](C(=O)N[C@@H](CCC(N)=O)C(=O)N[C@H](C(=O)N[C@@H](CCCCN)C(=O)N[C@H](C(=O)N[C@H](C(=O)N[C@@H](CC(=O)O)C(N)=O)[C@@H](C)O)[C@@H](C)CC)[C@@H](C)O)[C@@H](C)CC)[C@@H](C)CC (H-HGDGSFTSELSTYK(Palmitoyl)DALAARDFIAWLIQTKITD-NH2)
EC50 [2]: 170 pM
EC50 [3]: 1000 pM
half-life [4]: 2.7 h

CCCC[C@H](NC(=O)[C@H](CCC(=O)O)NC(=O)[C@H](CC(=O)O)NC(=O)[C@H](CO)NC(=O)[C@H](Cc1ccccc1)NC(=O)[C@H](CO)NC(=O)CNC(=O)[C@H](CC(=O)O)NC(=O)CNC(=O)[C@@H](N)Cc1cnc[nH]1)C(=O)N[C@H](Cc1ccccc1)C(=O)N[C@H](C(=O)N[C@H](C(=O)N[C@@H](CC(C)C)C(=O)N[C@@H](CC(=O)O)C(=O)N[C@@H](CC(C)C)C(=O)N[C@@H](CC(C)C)C(=O)N[C@@H](C)C(=O)N[C@@H](C)C(=O)N[C@@H](CCCNC(=N)N)C(=O)N[C@@H](CC(=O)O)C(=O)N[C@@H](Cc1ccccc1)C(=O)N[C@H](C(=O)N[C@@H](CC(N)=O)C(=O)N[C@@H](Cc1c[nH]c2ccccc12)C(=O)N[C@@H](CC(C)C)C(=O)N[C@H](C(=O)N[C@@H](CCC(N)=O)C(=O)N[C@H](C(=O)N[C@@H](CCCCN)C(=O)N[C@H](C(=O)N[C@H](C(=O)N[C@@H](CC(=O)O)C(N)=O)[C@@H](C)O)[C@@H](C)CC)[C@@H](C)O)[C@@H](C)CC)[C@@H](C)CC)[C@@H](C)CC)[C@@H](C)O [FE 203799] (H-HGDGSFSDE[Nle][dF]TILDLLAARDFINWLIQTKITD-NH2)
clearance [5]: < 0.3 mL/min/kg
half-life [6]: > 30 h
half-life [7]: > 30 h

CC[C@H](C)[C@H](NC(=O)[C@H](Cc1ccccc1)NC(=O)[C@H](CC(=O)O)NC(=O)[C@H](CCCNC(=N)N)NC(=O)[C@H](C)NC(=O)[C@H](C)NC(=O)[C@H](CC(C)C)NC(=O)[C@H](CC(N)=O)NC(=O)[C@H](CC(=O)O)NC(=O)[C@H](CC(C)C)NC(=O)[C@@H](NC(=O)[C@@H](NC(=O)[C@H](CC(N)=O)NC(=O)[C@H](CCSC)NC(=O)[C@H](CCC(=O)O)NC(=O)[C@H](CC(=O)O)NC(=O)[C@H](CO)NC(=O)[C@H](Cc1ccccc1)NC(=O)[C@H](CO)NC(=O)CNC(=O)[C@H](CC(=O)O)NC(=O)CNC(=O)[C@@H](N)Cc1c[nH]cn1)[C@@H](C)O)[C@@H](C)CC)C(=O)N[C@@H](CC(N)=O)C(=O)N[C@@H](Cc1c[nH]c2ccccc12)C(=O)N[C@@H](CC(C)C)C(=O)N[C@H](C(=O)N[C@@H](CCC(N)=O)C(=O)N[C@H](C(=O)N[C@@H](CCCCN)C(=O)N[C@H](C(=O)N[C@H](C(=O)N[C@@H](CC(=O)O)C(=O)O)[C@@H](C)O)[C@@H](C)CC)[C@@H](C)O)[C@@H](C)CC [TEDUGLUTIDE]
half-life [8]: 2 h

H-HGDGSFTSELSTYLDALAARDFIAWLIQTKITD-NH2
EC50 [2]: 70 pM
EC50 [3]: 90 pM
half-life [4]: 0.9 h

H-HGEGTFSSELATILDALAARDFIAWLIATKITDKKKKKK-NH2
half-life [9]: 50 h
Activity (Homo sapiens): <=86%

SEMAGLUTIDE
t1/2 [10]: 165 h
